Experimental data as given in US20210290648A1, “Potentiation of B-Lactam Antibiotics and B-Lactam/B-Lactamase Inhibitor Combinations Against Multidrug and Extensively Drug-Resistant Pseudomonas Aeruginosa Using Non-Ribosomal Tobramycin-Cyclam Conjugates” (University of Manitoba, priority 2018, published 2021).
Like-named read-outs stand apart in the source and are kept apart here.

Key:
WT P. aeruginosa PAO1 = test: Checkerboard combination study / MIC; format: cell-based, Pseudomonas aeruginosa; conditions: for MIC: Pseudomonas aeruginosa
PA 100036 = test: Checkerboard combination study / MIC; format: cell-based, Pseudomonas aeruginosa
PA 101885 = test: Checkerboard combination study / MIC; format: cell-based, Pseudomonas aeruginosa
PA 259 = test: Checkerboard combination study / MIC; format: cell-based, Pseudomonas aeruginosa
PA 260 = test: Checkerboard combination study / MIC; format: cell-based, Pseudomonas aeruginosa
PA 264 = test: Checkerboard combination study / MIC; format: cell-based, Pseudomonas aeruginosa
PAO200 = format: cell-based, Pseudomonas aeruginosa
Excerpt: (§1) PAO200 is a tnexA-rnexB-oprM deletion strain while PAO750 lacks five important RND pumps (McxAB-OprM, MexCD-OprJ, MexEF-OprN, Mex JK, and MexXY) and the outer membrane protein OpmH (46, 47). Some of these pumps are homologues of broad substrate specificities that extrude different classes of antimicrobial agents and confer resistance on P. aeruginosa (48).
(§2) Antimicrobial Susceptibility Assay. The in vitro antimicrobial activity of all compounds/antibiotics against a panel of bacteria was evaluated by microbroth dilution method in accordance with the Clinical and Laboratory Standards Institute (CLSI) guidelines. Overnight grown bacterial cultures were diluted in saline to achieve a 0.5 McFarland turbidity, followed by 1:50 dilution in Mueller-Hinton broth (MHB) for inoculation to a final concentration of approximately 5×10^5CFU/mL. The antimicrobial agents were 2-fold serially diluted in MHB in a 96-well plate and incubated at 37° C. with equal volumes of inoculum for 18 h. The lowest concentration that prevented the visible growth of bacteria was defined as the MIC for each antimicrobial agent. The broth with or without bacterial cells was used as positive or negative control, respectively.
(§3) Checkerboard Assay. Combination studies with different antibiotics were performed in 96-well plates as previously described (22). Briefly, the antibiotic of interest was serially diluted in MHB along the abscissa while the adjuvant (newly synthesized conjugates) was serially diluted in MHB along the ordinate. This creates a 10×7 matrix wherein each well consists of a combination of different antibiotic and adjuvant concentrations. Overnight grown bacterial cultures were diluted in saline to achieve a 0.5 McFarland turbidity, followed by 1:50 dilution in Mueller-Hinton broth (MHB) for inoculation to a final concentration of approximately 5×10^5CFU/mL. Equal volume of this bacterial culture was then added to each well and incubated at 37° C. for 18 h. After incubation, the plates were read on EMax® Plus microplate reader (Molecular Devices, Sunnyvale, Calif., USA) at 590 nm. MIC was recorded as wells with the lowest concentration of drugs with no bacterial growth. The fractional inhibitory concentration (FIC) for each antibiotic was calculated by dividing the MIC of the antibiotic in the presence of adjuvant by the MIC of the antibiotic alone. Similarly, the FIC of adjuvant was calculated by dividing the MIC of the adjuvant in the presence of antibiotic by the MIC of the adjuvant alone. FIC index is the sum of both FICs. FIC indices of <0.5 were deemed synergistic; 0.5-4, no interaction; and >4, antagonistic.

PAO750 = format: cell-based, Pseudomonas aeruginosa
Excerpt: as §1, §2, §3

[1] = system: Galleria mellonella larvae; test: Galleria mellonella tolerability study; conditions: 100 mg/kg and 200 mg/kg injected alone; after 48 h
Description: In vitro and in vivo discordances have been observed in antimicrobial chemotherapy, thus, therapeutic efficacy may not necessarily be reliably extrapolated based on in vitro data alone. […] Colistin (100 mg/kg), an antibiotic well known for its toxicity towards eukaryotes, served as a positive control for this experiment while PBS served as negative control. […] Survivability was scored for a total of 4 days.
In vivo larvae-infection model. In vivo synergistic effects were determined using Galleria mellonella infection model, as previously described (20). Briefly, worms were purchased from The Worm Lady® Live Feeder (ON, Canada), stored in their natural habitat at 16° C., and used within 10 days of delivery. The worms (average weight of 250 mg) were used for tolerability and efficacy studies. Tolerability study was performed by injecting 10 μL of antimicrobial agents only at concentrations equivalent to 100 mg/kg or 200 mg/kg. The worms (ten in each group) were incubated at 37° C. and monitored for 96 h. […] Overnight grown culture of respective MDR P. aeruginosa isolate was standardized to 0.5 McFarland standard and diluted in PBS to a final concentration of […]. 10 μL of this solution (5 CFU) was injected into each worm and incubated for 3 h at 37° C. […] Worms treated with 10 μL PBS or high concentrations of test antibiotics served as negative and positive control, respectively. The worms were incubated at 37° C. in Petri dishes lined with filter paper and scored for survivability every 6 h for up to 48 h. This experiment was repeated to give a total of thirty worms (n=30) in each case. Survival data curves were plotted using Kaplan-Meier survival analysis.

[2] = MIC of antibiotic combined with compound 2

Question: `C[C@H]1[C@H](NC(=O)/C(=N\OC(C)(C)C(=O)O)c2csc(N)n2)C(=O)N1S(=O)(=O)O` [Aztreonam] was tested. Which “MIC of antibiotic + Compound 2 in PAO1” value (WT P. aeruginosa PAO1; + compound 2 ≤8.7 μM, PAO1) did it give?
Answer: The value was 0.25 mg/L.

Question: And the MIC (WT P. aeruginosa PAO1; PAO1, 18 h, antibiotic alone, WT PAO1 (Table 2), read-out: MIC alone)?
Answer: The MIC was 4 mg/L.

Question: And the MIC (WT P. aeruginosa PAO1; PAO1, FIG. 7 legend, read-out: MIC against WT PAO1)?
Answer: The MIC was 0.004 mg/L.

Question: What about the MIC (WT P. aeruginosa PAO1; PAO1, time-kill study text and FIG. 7 legend, read-out: MIC against WT PAO1) of the same molecule?
Answer: The MIC was 4 mg/L.

Question: What about the “FICI in the presence of ≤10 μM of 1” value (WT P. aeruginosa PAO1; antibiotic + compound 1, WT PAO1) of the same molecule?
Answer: Its value is 0.13.

Question: And the “MIC of Antibiotics in the presence of ≤10 μM of 1” value (WT P. aeruginosa PAO1; antibiotic + compound 1 ≤10 μM, WT PAO1)?
Answer: The value was 0.5 mg/L.

Question: What about the “FICI in the presence of ≤10 μM of 2” value (WT P. aeruginosa PAO1; antibiotic + compound 2, WT PAO1) of the same molecule?
Answer: Its value is 0.07.

Question: And the “MIC of Antibiotics in the presence of ≤10 μM of 2” value (WT P. aeruginosa PAO1; antibiotic + compound 2 ≤10 μM, WT PAO1)?
Answer: Its value is 0.25 mg/L.

Question: What about the “FICI in the presence of ≤10 μM of 3” value (WT P. aeruginosa PAO1; antibiotic + compound 3, WT PAO1) of the same molecule?
Answer: The value was 0.14.

Question: And the “MIC of Antibiotics in the presence of ≤10 μM of 3” value (WT P. aeruginosa PAO1; antibiotic + compound 3 ≤10 μM, WT PAO1)?
Answer: Its value is 0.5 mg/L.

Question: What about the “MIC of antibiotic alone in PAO1” value (WT P. aeruginosa PAO1; antibiotic alone, PAO1 wild-type (Table 4)) of the same molecule?
Answer: The value was 4 mg/L.

Question: And the “MICCombination (antibiotic)” value (PA 100036; [2])?
Answer: Its value is 2 µg/mL.

Question: What about the FICI (PA 100036; antibiotic + compound 2) of the same molecule?
Answer: The FICI was under 0.16.

Question: And the MICAntibiotic (PA 100036; antibiotic alone)?
Answer: The MICAntibiotic was 16 µg/mL.

Question: What about the “MICCombination (antibiotic)” value (PA 101885; [2]) of the same molecule?
Answer: Its value is 0.5 µg/mL.

Question: And the FICI (PA 101885; antibiotic + compound 2)?
Answer: Its FICI is under 0.09.

Question: And the MICAntibiotic (PA 101885; antibiotic alone)?
Answer: Its MICAntibiotic is 16 µg/mL.

Question: What about the FICAntibiotic (PA 101885; with compound 2) of the same molecule?
Answer: The FICAntibiotic was 0.031.

Question: What about the “MICCombination (antibiotic)” value (PA 259; [2]) of the same molecule?
Answer: Its value is 4 µg/mL.

Question: And the FICI (PA 259; antibiotic + compound 2)?
Answer: The FICI was under 0.19.

Question: And the MICAntibiotic (PA 259; antibiotic alone)?
Answer: The MICAntibiotic was 32 µg/mL.

Question: And the “MICCombination (antibiotic)” value (PA 260; [2])?
Answer: The value was 8 µg/mL.

Question: And the FICI (PA 260; antibiotic + compound 2)?
Answer: Its FICI is under 0.19.

Question: What about the MICAntibiotic (PA 260; antibiotic alone) of the same molecule?
Answer: Its MICAntibiotic is 64 µg/mL.

Question: What about the “MICCombination (antibiotic)” value (PA 264; [2]) of the same molecule?
Answer: The value was 16 µg/mL.

Question: What about the FICI (PA 264; antibiotic + compound 2) of the same molecule?
Answer: The FICI was under 0.28.

Question: What about the MICAntibiotic (PA 264; antibiotic alone) of the same molecule?
Answer: The MICAntibiotic was 64 µg/mL.

Question: And the FICAntibiotic (PA 264; with compound 2)?
Answer: The FICAntibiotic was 0.250.

Question: What about the “MIC of antibiotic + Compound 2 in PAO200” value (PAO200; + compound 2 ≤8.7 μM, PAO200) of the same molecule?
Answer: The value was 0.016 mg/L.

Question: And the “MIC of antibiotic alone in PAO200” value (PAO200; antibiotic alone, PAO200 efflux-deficient)?
Answer: The value was 0.25 mg/L.

Question: And the “MIC of antibiotic + Compound 2 in PAO750” value (PAO750; + compound 2 ≤8.7 μM, PAO750)?
Answer: The value was 0.031 mg/L.

Question: What about the “MIC of antibiotic alone in PAO750” value (PAO750; antibiotic alone, PAO750 efflux-deficient) of the same molecule?
Answer: The value was 0.5 mg/L.

Question: What about the survival of larvae [1] of the same molecule?
Answer: The survival of larvae was 100%.
